Measurements as given in US11090292B2, “Compositions and methods of use of an inappetance-controlling compound” (Aratana Therapeutics, Inc., priority 2012, dated 2021).

Columns and labels:
[1] = Example 1: capromorelin concentration in serum; type: in vivo
Description: (§1) A controlled, seven-day study was performed to assess the impact of different capromorelin-dosing regimens on the production of insulin-like growth factor 1 (hereinafter “IGF-1”), growth hormone (hereinafter “GH”), and cortisol. The different capromorelin-dosing regimens were also assessed for the impact on food intake and changes in body mass.
(§2) Eighteen adult non-naïve Beagle dogs (nine males and nine females) were divided into one of three treatment groups. Each of the three treatment groups included three males and three females. Group A, which was the control group, was dosed twice per day, via oral gavage, with a vehicle (deionized water alone) and was used as a baseline data point for comparison against the active treatment regimens. Group B comprised an active treatment group that received two treatments per day, via oral gavage, with a capromorelin-containing composition with a concentration of 3 mg/kg capromorelin per treatment. Finally, Group C comprised an active treatment group that received one treatment per day, via oral gavage, with a capromorelin-containing composition with a concentration of 6 mg/kg capromorelin per treatment.
(§3) During the ten day study period, on an at least once-daily basis, each of the dogs was monitored for clinical observations, mortality, morbidity, body mass, and food consumption. Serum samples were taken to measure capromorelin concentration, GH concentration, IGF-1 concentration, and cortisol concentration. Serum samples were taken on days 1, 2, 4, and 7 at −15 minutes (pre-dose), immediately prior to dosing (0 minutes) and 30, 45, 60, 90, 120, 240, 360, and/or 480 minutes post dosing. Additional blood samples were taken at 8 AM on Day 10 of the study to assess long-term impact of the active treatments.

[2] = test system: cortisol; assay: Example 1: serum cortisol concentration; type: in vivo, Beagle dogs; conditions: approximately 0.5 h post treatment, days 1, 2 and 7
Description: as §1, §2
During the ten day study period, on an at least once-daily basis, each of the dogs was monitored for clinical observations, mortality, morbidity, body mass, and food consumption. […]

[3] = Example 4: capromorelin concentration in serum; type: in vivo; conditions: Days 1 and 7, 3 mg/kg once or twice daily
Description: (§4) A controlled, seven-day study was performed to assess the impact of different capromorelin-dosing regimens on the production of IGF-1, GH, and cortisol. The different capromorelin-dosing regimens were also assessed for the impact on food intake and changes in body mass.
(§5) […] were divided into one of three treatment groups, with one negative control group and two active treatment groups. Each of the three treatment groups included three males and three females. The first group received a placebo formulation (i.e., deionized water) twice per day, via oral gavage. The second group received a once-daily dose of the capromorelin composition at a concentration of 3 mg/kg, via oral gavage. The third group received a twice-daily dose of the capromorelin composition at a concentration of 3 mg/kg, via oral gavage.
as §3, with “moribundity,” for “morbidity,”, “mass, acceptability/palatability,” for “mass,”, “Additional blood samples were taken at 8 AM on Day 10 of the study to assess long-term impact of the active treatments.” left out

[4] = test system: cortisol; assay: Example 4: serum cortisol concentration; type: in vivo, Beagle dogs; conditions: approximately 0.5 h post treatment, days 1, 4 and 7
Description: as §4, §5
as §3, with “moribundity,” for “morbidity,”, “mass, acceptability/palatability,” for “mass,”, “Additional blood samples were taken at 8 AM on Day 10 of the study to assess long-term impact of the active treatments.” left out

[5] = test system: cortisol; assay: Example 5: serum cortisol; type: in vivo, Beagle dogs; conditions: Groups 2-4; mitigated by Day 4, further reduced by Day 7
Description: In order to further refine the dosing regimen that would provide an appropriate blood profile of capromorelin and desired results from the perspective of increased food intake and weight gain, an additional series of experiments were conducted. In these experiments, twenty-four adult (male and female) Beagle dogs weighing approximately 9 to 13 kilograms were randomly divided into four groups. Group 1 received a placebo formulation, without any active compound, two times per day; Group 2 received a composition comprising 3 mg/kg of body weight of capromorelin one time per day; Group 3 received a composition comprising 4.5 mg/kg of body weight of capromorelin one time per day; and Group 4 received a composition comprising 3 mg/kg of body weight of capromorelin two times per day. […]
In these experiments, the animals were orally administered the flavored formulation at approximately 8:00 AM and, for Group 4 only, again at 6:00 PM. […] Food consumption was calculated and recorded on Days −7 through Day 7. Baseline food consumption was calculated for each individual dog as the average number of grams of food consumed on Days −3, −2, and −1. The study period food consumption was calculated for each individual dog as the average of Days 1 through 7. […]

[6] = Days 1 and 7, 3 mg/kg twice daily or 6 mg/kg once daily oral gavage

CN1N=C2CCN(C(=O)[C@@H](COCc3ccccc3)NC(=O)C(C)(C)N)C[C@@]2(Cc2ccccc2)C1=O.O=C(O)C(O)C(O)C(=O)O [capromorelin]
serum capromorelin by eight hours after dosing (480 minutes) [1, 6]: decreased to near undetectable levels
time after dosing at which serum capromorelin concentrations spike [1, 6]: approximately 0.5 h
serum capromorelin concentration, 6 mg/kg dose relative to twice-daily 3 mg/kg dose ([1]; oral gavage): about 2.3 fold
cortisol concentrations in the serum relative to deionized water [2]: increased
serum capromorelin by eight hours after administration [3]: decreased to near undetectable levels
time after dosing at which serum capromorelin begins rising [3]: approximately 0.5 h
cortisol concentrations in the serum relative to deionized water [4]: increased
cortisol in the serum [5]: initial increase in cortisol in the serum on Day 1
